Measurements as given in patent publication US8551937B2, “Peptide having an extending action for half-life of object peptide in plasma” (priority 2008, dated 2013).
Where a SMILES comes first, the peptide text is derived from it.

Experiment: Motilin immunoreactivity concentration in plasma, half-life after intravenous administration (Example 8)
Conditions: SD, rat, in vivo; intravenous, 10 nmol/kg, male rats, N = 3; read-out: T½ Mean Value
Description: The experiment was carried out using rats into which polyethylene tube (PE-50 manufactured by Clay Adams) was inserted into thigh artery under an anesthetized condition with Nembutal. As to a test system, male SD strain rats (Nippon Charles River) of 7 weeks age were used where one group comprised 3 rats. Human motilin or a derivative thereof in a dose of 10 nmol/kg was administered into tail vein of the rat and the blood before the administration and until 60 minutes after the administration was periodically collected by a polyethylene tube inserted into the thigh artery. To the collected blood were added EDTA (manufactured by Dojin Laboratories) and aprotinin (manufactured by Bayer) as a stabilizer and an anti-coagulant, respectively and the plasma was separated therefrom by centrifugal separation. Motilin immunoreactivity concentration in plasma was measured by a competitive radioimmunoassay (RIA) (FIG. 8). At that time, a rabbit polyclonal antibody (#870623) which specifically recognizes the amino acid numbers 1 to 12 of native motilin shown by SEQ ID No: 102 was used as an antibody and, as a labeled compound, ^125I-[Tyr^7] human motilin was used.

| Structure (SMILES) | half-life |
| --- | --- |
| CC[C@H](C)[C@H](NC(=O)[C@@H]1CCCN1C(=O)[C@@H](NC(=O)[C@@H](N)Cc1ccccc1)C(C)C)C(=O)N[C@@H](Cc1ccccc1)C(=O)N[C@H](C(=O)N[C@@H](Cc1ccc(O)cc1)C(=O)NCC(=O)N[C@@H](CCC(=O)O)C(=O)N[C@@H](CC(C)C)C(=O)N[C@@H](CCC(N)=O)C(=O)N[C@@H](CCCNC(=N)N)C(=O)N[C@H](C(=O)N[C@@H](CCC(N)=O)C(=O)N[C@@H](CCC(N)=O)C(=O)N[C@@H](CCCCN)C(=O)N[C@@H](CCCNC(=N)N)C(=O)N[C@@H](CC(=O)O)C(=O)N[C@@H](CO)C(=O)N[C@@H](CCCNC(=N)N)C(=O)N[C@@H](CCCNC(=N)N)C(=O)N1CCC[C@H]1C(=O)N1CCC[C@H]1C(=O)N[C@@H](C)C(=O)N[C@@H](CCCCN)C(=O)N[C@@H](CC(C)C)C(=O)N[C@@H](CCC(N)=O)C(=O)N1CCC[C@H]1C(=O)N[C@@H](CCCNC(=N)N)C(=O)O)C(C)C)[C@@H](C)O [Chimeric motilin (X)(MG-17E/D)] (H-FVPIFTYGELQRVQQKRDSRRPPAKLQPR-OH) | 7.89 min |

Same assay, conditions: male, SD, rat, in vivo, iv, 10 nmol/kg

| Structure (SMILES) | half-life |
| --- | --- |
| CC[C@H](C)[C@H](NC(=O)[C@@H]1CCCN1C(=O)[C@@H](NC(=O)[C@@H](N)Cc1ccccc1)C(C)C)C(=O)N[C@@H](Cc1ccccc1)C(=O)N[C@H](C(=O)N[C@@H](Cc1ccc(O)cc1)C(=O)NCC(=O)N[C@@H](CCC(=O)O)C(=O)N[C@@H](CC(C)C)C(=O)N[C@@H](CCC(N)=O)C(=O)N[C@@H](CCCNC(=N)N)C(=O)N[C@H](C(=O)N[C@@H](CCC(N)=O)C(=O)N[C@@H](CCC(N)=O)C(=O)N[C@@H](CCCNC(=N)N)C(=O)N[C@@H](CCCCN)C(=O)N[C@@H](CC(=O)O)C(=O)N[C@@H](CO)C(=O)N[C@@H](CCCCN)C(=O)N[C@@H](CCCCN)C(=O)N1CCC[C@H]1C(=O)N1CCC[C@H]1C(=O)N[C@@H](C)C(=O)N[C@@H](CCCCN)C(=O)N[C@@H](CC(C)C)C(=O)N[C@@H](CCC(N)=O)C(=O)N1CCC[C@H]1C(=O)N[C@@H](CCCNC(=N)N)C(=O)O)C(C)C)[C@@H](C)O [Chimeric motilin (V)(MG-ES/DS)] (H-FVPIFTYGELQRVQQRKDSKKPPAKLQPR-OH; N-terminus and C-terminus assumed) | 10.1 min |
| CC[C@H](C)[C@H](NC(=O)[C@@H]1CCCN1C(=O)[C@@H](NC(=O)[C@@H](N)Cc1ccccc1)C(C)C)C(=O)N[C@@H](Cc1ccccc1)C(=O)N[C@H](C(=O)N[C@@H](Cc1ccc(O)cc1)C(=O)NCC(=O)N[C@@H](CCC(=O)O)C(=O)N[C@@H](CC(C)C)C(=O)N[C@@H](CCC(N)=O)C(=O)N[C@@H](CCCNC(=N)N)C(=O)N[C@H](C(=O)N[C@@H](CCC(N)=O)C(=O)N[C@@H](CCC(N)=O)C(=O)N[C@@H](CCCNC(=N)N)C(=O)N[C@@H](CCCCN)C(=O)N[C@@H](CCC(=O)O)C(=O)N[C@@H](CO)C(=O)N[C@@H](CCCCN)C(=O)N[C@@H](CCCCN)C(=O)N1CCC[C@H]1C(=O)N1CCC[C@H]1C(=O)N[C@@H](C)C(=O)N[C@@H](CCCCN)C(=O)N[C@@H](CC(C)C)C(=O)N[C@@H](C)C(=O)N[C@@H](C)C(=O)N[C@@H](CC(C)C)C(=O)N[C@@H](CCCCN)C(=O)N[C@@H](C)C(=O)O)C(C)C)[C@@H](C)O [Chimeric motilin (VI)(MG-H1)] (H-FVPIFTYGELQRVQQRKESKKPPAKLAALKA-OH; N-terminus and C-terminus assumed) | 9.94 min |
| CC[C@H](C)[C@H](NC(=O)[C@@H]1CCCN1C(=O)[C@@H](NC(=O)[C@@H](N)Cc1ccccc1)C(C)C)C(=O)N[C@@H](Cc1ccccc1)C(=O)N[C@H](C(=O)N[C@@H](Cc1ccc(O)cc1)C(=O)NCC(=O)N[C@@H](CCC(=O)O)C(=O)N[C@@H](CC(C)C)C(=O)N[C@@H](CCC(N)=O)C(=O)N[C@@H](CCCNC(=N)N)C(=O)N[C@H](C(=O)N[C@@H](CCC(N)=O)C(=O)N[C@@H](CCC(N)=O)C(=O)N[C@@H](CCCNC(=N)N)C(=O)N[C@@H](CCCCN)C(=O)N[C@@H](CCC(=O)O)C(=O)N[C@@H](CO)C(=O)N[C@@H](CCCCN)C(=O)N[C@@H](CCCCN)C(=O)N1CCC[C@H]1C(=O)N1CCC[C@H]1C(=O)N[C@@H](C)C(=O)N[C@@H](CCC(=O)O)C(=O)N[C@@H](CC(C)C)C(=O)N[C@@H](C)C(=O)N[C@@H](C)C(=O)N[C@@H](CC(C)C)C(=O)N[C@@H](CCC(=O)O)C(=O)N[C@@H](C)C(=O)O)C(C)C)[C@@H](C)O [Chimeric motilin (VII)(MG-H3)] (H-FVPIFTYGELQRVQQRKESKKPPAELAALEA-OH; N-terminus and C-terminus assumed) | 12.8 min |
| CC[C@H](C)[C@H](NC(=O)[C@@H]1CCCN1C(=O)[C@@H](NC(=O)[C@@H](N)Cc1ccccc1)C(C)C)C(=O)N[C@@H](Cc1ccccc1)C(=O)N[C@H](C(=O)N[C@@H](Cc1ccc(O)cc1)C(=O)NCC(=O)N[C@@H](CCC(=O)O)C(=O)N[C@@H](CC(C)C)C(=O)N[C@@H](CCC(N)=O)C(=O)N[C@@H](CCCNC(=N)N)C(=O)N[C@H](C(=O)N[C@@H](CCC(N)=O)C(=O)N[C@@H](CCC(N)=O)C(=O)N[C@@H](CCCNC(=N)N)C(=O)N[C@@H](CCCCN)C(=O)N[C@@H](CCC(=O)O)C(=O)N[C@@H](CO)C(=O)N[C@@H](CCCCN)C(=O)N[C@@H](CCCCN)C(=O)N1CCC[C@H]1C(=O)N1CCC[C@H]1C(=O)N[C@@H](C)C(=O)N[C@@H](CCC(=O)O)C(=O)N[C@@H](CC(C)C)C(=O)N[C@@H](C)C(=O)N[C@@H](C)C(=O)N[C@@H](CC(C)C)C(=O)N[C@@H](CCCCN)C(=O)N[C@@H](C)C(=O)O)C(C)C)[C@@H](C)O [Chimeric motilin (VIII)(MG-H4)] (H-FVPIFTYGELQRVQQRKESKKPPAELAALKA-OH; N-terminus and C-terminus assumed) | 11.6 min |
| CC[C@H](C)[C@H](NC(=O)[C@@H]1CCCN1C(=O)[C@@H](NC(=O)[C@@H](N)Cc1ccccc1)C(C)C)C(=O)N[C@@H](Cc1ccccc1)C(=O)N[C@H](C(=O)N[C@@H](Cc1ccc(O)cc1)C(=O)NCC(=O)N[C@@H](CCC(=O)O)C(=O)N[C@@H](CC(C)C)C(=O)N[C@@H](CCC(N)=O)C(=O)N[C@@H](CCCNC(=N)N)C(=O)N[C@H](C(=O)N[C@@H](CCC(N)=O)C(=O)N[C@@H](CCC(N)=O)C(=O)N[C@@H](CCCNC(=N)N)C(=O)N[C@@H](CCCCN)C(=O)N[C@@H](CCCCN)C(=O)N[C@@H](CCCCN)C(=O)N1CCC[C@H]1C(=O)N1CCC[C@H]1C(=O)N[C@@H](C)C(=O)N[C@@H](CCCCN)C(=O)N[C@@H](CC(C)C)C(=O)N[C@@H](CCC(N)=O)C(=O)N1CCC[C@H]1C(=O)N[C@@H](CCCNC(=N)N)C(=O)O)C(C)C)[C@@H](C)O [Chimeric motilin (W)(MG-dES)] (H-FVPIFTYGELQRVQQRKKKPPAKLQPR-OH; N-terminus and C-terminus assumed) | 5.39 min |
| CC[C@H](C)[C@H](NC(=O)[C@H](CCSC)NC(=O)[C@@H]1CCCN1C(=O)[C@@H]1CCCN1C(=O)[C@H](CCCCN)NC(=O)[C@H](CCCCN)NC(=O)[C@H](CO)NC(=O)[C@H](CCC(=O)O)NC(=O)[C@H](CCCCN)NC(=O)[C@H](CCCNC(=N)N)NC(=O)[C@H](CCC(N)=O)NC(=O)[C@H](CCC(N)=O)NC(=O)[C@@H](NC(=O)[C@H](CCCNC(=N)N)NC(=O)[C@H](CCC(N)=O)NC(=O)[C@H](CC(C)C)NC(=O)[C@H](CCC(=O)O)NC(=O)CNC(=O)[C@H](Cc1ccc(O)cc1)NC(=O)[C@@H](NC(=O)[C@H](Cc1ccccc1)NC(=O)[C@@H](NC(=O)[C@@H]1CCCN1C(=O)[C@@H](NC(=O)[C@@H](N)Cc1ccccc1)C(C)C)[C@@H](C)CC)[C@@H](C)O)C(C)C)C(=O)N[C@H](C(=O)N[C@H](C(=O)N[C@@H](CCCNC(=N)N)C(=O)O)[C@@H](C)CC)[C@@H](C)O [Chimeric motilin (X)(MG-S)] (H-FVPIFTYGELQRVQQRKESKKPPMITIR-OH; N-terminus and C-terminus assumed) | 5.25 min |
| CC[C@H](C)[C@H](NC(=O)[C@@H]1CCCN1C(=O)[C@@H](NC(=O)[C@@H](N)Cc1ccccc1)C(C)C)C(=O)N[C@@H](Cc1ccccc1)C(=O)N[C@H](C(=O)N[C@@H](Cc1ccc(O)cc1)C(=O)NCC(=O)N[C@@H](CCC(=O)O)C(=O)N[C@@H](CC(C)C)C(=O)N[C@@H](CCC(N)=O)C(=O)N[C@@H](CCCNC(=N)N)C(=O)N[C@@H](CCCCN)C(=O)N[C@@H](CCC(=O)O)C(=O)N[C@@H](CO)C(=O)N[C@@H](CCCCN)C(=O)N[C@@H](CCCCN)C(=O)N1CCC[C@H]1C(=O)N1CCC[C@H]1C(=O)N[C@@H](C)C(=O)N[C@@H](CCCCN)C(=O)N[C@@H](CC(C)C)C(=O)N[C@@H](C)C(=O)N[C@@H](C)C(=O)N[C@@H](CC(C)C)C(=O)N[C@@H](CCCCN)C(=O)N[C@@H](C)C(=O)O)[C@@H](C)O [Chimeric motilin (XI) (MG-d12/14)] (H-FVPIFTYGELQRKESKKPPAKLAALKA-OH; N-terminus and C-terminus assumed) | 10.3 min |
| CC[C@H](C)[C@H](NC(=O)[C@@H]1CCCN1C(=O)[C@@H](NC(=O)[C@@H](N)Cc1ccccc1)C(C)C)C(=O)N[C@@H](Cc1ccccc1)C(=O)N[C@H](C(=O)N[C@@H](Cc1ccc(O)cc1)C(=O)NCC(=O)N[C@@H](CCC(=O)O)C(=O)N[C@@H](CC(C)C)C(=O)N[C@@H](CCC(N)=O)C(=O)N[C@@H](CCCNC(=N)N)C(=O)N[C@H](C(=O)N[C@@H](CCC(N)=O)C(=O)N[C@@H](CCC(N)=O)C(=O)N[C@@H](CCCCN)C(=O)N[C@@H](CCCCN)C(=O)N[C@@H](C)C(=O)N[C@@H](Cc1ccc(O)cc1)C(=O)N[C@@H](CO)C(=O)N1CCC[C@H]1C(=O)N[C@@H](CC(=O)O)C(=O)N[C@@H](CCCCN)C(=O)N[C@@H](CCC(=O)O)C(=O)N[C@@H](CCCNC(=N)N)C(=O)N[C@@H](CCCCN)C(=O)N1CCC[C@H]1C(=O)N1CCC[C@H]1C(=O)N[C@@H](C)C(=O)N[C@@H](CC(C)C)C(=O)N[C@@H](CCC(N)=O)C(=O)N1CCC[C@H]1C(=O)N[C@@H](CCCNC(=N)N)C(=O)O)C(C)C)[C@@H](C)O [Chimeric motilin (XII)(MGP1)] (H-FVPIFTYGELQRVQQKKAYSPDKERKPPALQPR-OH; N-terminus and C-terminus assumed) | 13 min |
